Several values for one entry are separate records, joined by “and”; a condition that tells them apart may be missing. Identical values can stand only once.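 96-well plates; 48 h exposure; 5 concentrations. Endpoints by linear interpolation between flanking doses. Not reached: highest tested concentration assigned. Here, GI50 denotes the concentration required for 50% inhibition of growth. Definition used: TGI = concentration required for complete inhibition of growth.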
Experiments:
Test in all cases: NCI-60 cell line screen, 48 h
NCI/ADR-RES ovarian = system: NCI/ADR-RES ovarian
OVCAR-3 ovarian = system: OVCAR-3 ovarian
SN12C renal = system: SN12C renal
HOP-62 NSCLC = system: HOP-62 NSCLC
OVCAR-5 ovarian = system: OVCAR-5 ovarian
RXF 393 renal = system: RXF 393 renal
T-47D breast = system: T-47D breast
LOX IMVI melanoma = system: LOX IMVI melanoma
OVCAR-8 ovarian = system: OVCAR-8 ovarian
HCC-2998 colon = system: HCC-2998 colon

Row | SMILES | GI50 (NCI/ADR-RES ovarian) | TGI (NCI/ADR-RES ovarian) | GI50 (OVCAR-3 ovarian) | TGI (OVCAR-3 ovarian) | GI50 (SN12C renal) | TGI (SN12C renal) | GI50 (HOP-62 NSCLC) | TGI (HOP-62 NSCLC) | GI50 (OVCAR-5 ovarian) | TGI (OVCAR-5 ovarian) | GI50 (RXF 393 renal) | TGI (RXF 393 renal) | GI50 (T-47D breast) | TGI (T-47D breast) | GI50 (LOX IMVI melanoma) | TGI (LOX IMVI melanoma) | GI50 (OVCAR-8 ovarian) | TGI (OVCAR-8 ovarian) | GI50 (HCC-2998 colon) | TGI (HCC-2998 colon)
1 | C[C@@H]1C[C@H](N)C[C@H](c2ccncc2NC(=O)c2ccc(F)c(-c3c(F)cccc3F)n2)C1 | 14.5 µM and > 10 µM | 30.6 µM and > 10 µM | 14.3 µM and > 10 µM | 28.2 µM and > 10 µM | 12.3 µM and > 10 µM | 25.7 µM and > 10 µM | 10.6 µM and > 10 µM | 25.2 µM and > 10 µM | 12.3 µM and > 10 µM | 25.9 µM and > 10 µM | 11 µM and 7.73 µM | 26 µM and > 10 µM | 10.5 µM and 8.5 µM | 28.5 µM and > 10 µM | 10.6 µM and > 10 µM | 23.3 µM and > 10 µM | 17.1 µM and > 10 µM | 32.8 µM and > 10 µM | 3.42 µM and 4.16 µM | 18 µM and > 10 µM
2 | CSc1cc([C@@H]2C[C@H]2c2ccc(Cl)cc2)on1 | 13.6 µM | 42.4 µM | 15.4 µM | 33.4 µM | 5.17 µM | 20.5 µM | 13.8 µM | 41.8 µM | 14.5 µM | 35.2 µM | 2.14 µM | 12.6 µM | 22.2 µM | > 100 µM | 3.99 µM | 19.9 µM | 12.3 µM | 46.1 µM | 1.25 µM | 15 µM
3 | CC(C)(C)OC(=O)C1C(=O)NC(=O)CC1CC(OCc1ccccc1)C(OCc1ccccc1)C(COCc1ccccc1)OCc1ccccc1 (stereo not given) | 36.8 µM and 12.1 µM | > 100 µM and 61.7 µM | – | > 100 µM | 95 µM and 36.4 µM | > 100 µM | > 100 µM and 34 µM | > 100 µM | – | > 100 µM | – | 99.7 µM and 32.6 µM | – | 81 µM | 34.7 µM and 8.43 µM | > 100 µM and 21.4 µM | 33.1 µM and 12 µM | > 100 µM | – | > 100 µM
4 | COc1ccc2cc(-c3cnc4nonc4n3)ccc2c1 | 1.32 µM | > 100 µM | 0.982 µM | 56.9 µM | 5.28 µM | > 100 µM | 5.22 µM | 64 µM | 6 µM | > 100 µM | 1.26 µM | 7.31 µM | 1.99 µM | > 100 µM | 1.88 µM | > 100 µM | 2.54 µM | > 100 µM | 2.32 µM | > 100 µM
5 | Cn1ncc(Cl)c1-c1cc(C(=O)N[C@H](CN)Cc2cccc(F)c2)sc1Cl | 3.28 µM and 9.52 µM | > 7.74 µM and 23.5 µM | 1.18 µM and 2.8 µM | > 10 µM and 15.4 µM | 1.86 µM and 2.04 µM | > 10 µM and 19.3 µM | 1.11 µM and 3.13 µM | > 10 µM and 16.6 µM | 2.2 µM and 2.69 µM | > 10 µM and 17.2 µM | 0.128 µM and 0.145 µM | 1.72 µM and 0.896 µM | 0.0272 µM and 0.0492 µM | 1.48 µM | 1.08 µM and 2.85 µM | 2.91 µM and 11.3 µM | 3.82 µM and 8.34 µM | > 7.9 µM and 23.8 µM | 0.743 µM and 1.54 µM | 2.67 µM and 4.87 µM
6 | CC1=C(C#N)C23C(=O)N(c4ccccc4)C(=O)C2=C(O)C=CC3(O)N1Cc1ccc(Cl)cc1Cl (stereo not given) | 16.2 µM | 39.5 µM | 2.89 µM | 4.96 µM | 2.4 µM | 6.83 µM | 4.31 µM | 15.7 µM | 5 µM | 23.4 µM | 1.87 µM | 3.87 µM | 2.93 µM | 14.6 µM | 1.59 µM | 2.94 µM | 3.52 µM | 13.8 µM | 1.81 µM | 3.82 µM
7 | COC(=O)/C=C1/SC(=Nc2cccc(Cl)c2)N(CCc2c[nH]c3ccc(O)cc23)C1=O | 2.41 µM | 6.89 µM | 1.54 µM | 3.23 µM | 1.79 µM | 3.67 µM | 1.9 µM | 3.93 µM | 1.92 µM | 4.07 µM | 1.51 µM | 2.97 µM | 2.03 µM | 7.15 µM | 1.52 µM | 2.98 µM | 2.32 µM | 6.72 µM | 1.88 µM | 3.48 µM
8 | COc1ccc(Nc2nc(NCCNc3ccnc4cc(Cl)ccc34)nc(N3CCOCC3)n2)cc1 | 6.38 µM | 24.9 µM | 11.5 µM | 24.3 µM | 8.73 µM | 23.4 µM | 8.09 µM | 21.6 µM | 15.7 µM | 31.4 µM | 1.89 µM | 8.92 µM | 11.6 µM | 28 µM | 3.01 µM | 10.6 µM | 6.46 µM | 27.4 µM | 2.08 µM | 3.88 µM
9 | NC(=S)N/N=C/c1ccc(OC(=O)COc2cc(Cl)c(Cl)cc2Cl)cn1 | 3.23 µM | > 100 µM | 3.39 µM | 58.2 µM | 3.58 µM | > 100 µM | 3.68 µM | 38.4 µM | 50.7 µM | > 100 µM | 3.16 µM | 21.4 µM | 2.87 µM | > 100 µM | 3.09 µM | 26.6 µM | 2.26 µM | > 100 µM | 5.84 µM | > 100 µM
10 | Cc1ccc(OCC2CO2)c(Br)c1 (stereo not given) | – | 33 µM | – | 68 µM | – | 45 µM | – | > 100 µM | – | 34.6 µM | – | 26.5 µM | – | > 100 µM | – | 30.4 µM | – | 20.4 µM | – | 34.8 µM
11 | COc1cc(-c2nn(-c3cccc(NC(=O)Nc4ccc(Cl)c(C(F)(F)F)c4)c3)cc2-c2ccncc2)ccc1Cl | 1.04 µM | 7.99 µM | 0.889 µM | 2.44 µM | 1.14 µM | 9.23 µM | 1.31 µM | 6.49 µM | 3.09 µM | 11 µM | 1.18 µM | 6.29 µM | 1.23 µM | > 32.5 µM | 1.17 µM | 4.61 µM | 1.05 µM | 5.87 µM | 1.55 µM | 7.3 µM
12 | CC1=C([Te]c2ccccc2)C(=O)c2ccccc2C1=O | 0.426 µM | 2.63 µM | 1.04 µM | 2.23 µM | 0.311 µM | 1.47 µM | 0.266 µM | 0.762 µM | 0.283 µM | 0.86 µM | 1.14 µM | 4.63 µM | 0.488 µM | 2.78 µM | 0.311 µM | 1.49 µM | 0.374 µM | 4.35 µM | 0.483 µM | 1.55 µM
